From patent publication US20160158200A1, “Combinations of Hepatitis C Virus Inhibitors” (priority 2013, published 2016)

The molecules below were run on HCV genotype-1a variant with glutamine 30 changed to glutamate in the NS5A protein. Conditions: test compound titrated with BMS-790052 fixed at 200 nM; genotype 1a Q30E replicon.
Type: cell-based
Outline: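 Synergy was assessed by combining several fixed amounts of an NS5A-targeting compound with a titration of the second compound of interest.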

SMILES | Fold-Synergistic 1a (Q30E) [fold]
CC(C)[C@H](NC(=O)c1ccc(C(F)(F)F)nc1)c1ncc(-c2ccc(-c3ccc(-c4cnc([C@@H](NC(=O)c5ccc(C(F)(F)F)nc5)C(C)C)[nH]4)cc3)cc2)[nH]1 [Compound S-103] | >100
CC(C)[C@H](NC(=O)c1cnco1)c1ncc(-c2ccc(-c3ccc(-c4cnc([C@@H](NC(=O)c5cnco5)C(C)C)[nH]4)cc3)cc2)[nH]1 [Compound P-94] | >10
CC(C)[C@H](NC(=O)C1(C(F)(F)F)CC1)c1ncc(-c2ccc(-c3ccc(-c4cnc([C@@H](NC(=O)C5(C(F)(F)F)CC5)C(C)C)[nH]4)cc3)cc2)[nH]1 [Compound P-88] | >100
CC(C)(C)[C@H](Nc1ncccn1)c1nc(-c2ccc(-c3ccc(-c4c[nH]c([C@@H](Nc5ncc(Br)cn5)C(C)(C)C)n4)cc3)cc2)c[nH]1 [Compound W-31] | >10
CC(C)(C)OC(=O)NC1(C(=O)N[C@H](c2nc(-c3ccc(-c4ccc(-c5c[nH]c([C@@H](NC(=O)C6(NC(=O)OC(C)(C)C)CCCCC6)C(C)(C)C)n5)cc4)cc3)c[nH]2)C(C)(C)C)CCCCC1.O=C(O)C(F)(F)F.O=C(O)C(F)(F)F [Compound L-7] | >100
COCC1(C(=O)N[C@H](c2nc(-c3ccc(-c4ccc(-c5c[nH]c([C@@H](NC(=O)C6(COC)CCC(F)(F)CC6)C(C)(C)C)n5)cc4)cc3)c[nH]2)C(C)(C)C)CCC(F)(F)CC1 [Compound P-41] | >100
CC(C)[C@H](NC(=O)c1ccco1)c1ncc(-c2ccc(-c3ccc(-c4cnc([C@@H](NC(=O)c5ccco5)C(C)C)[nH]4)cc3)cc2)[nH]1 [Compound S-8] | >100
CC(O)(CF)C(=O)N[C@H](c1nc(-c2ccc(-c3ccc(-c4c[nH]c([C@@H](NC(=O)C(C)(O)CF)C(C)(C)C)n4)cc3)cc2)c[nH]1)C(C)(C)C (single isomer, unassigned) [Compound N-139C] | >100
COc1cccc2c(C(=O)N3CCC[C@H]3c3ncc(-c4ccc(-c5ccc(-c6cnc([C@@H]7CCCN7C(=O)c7nccc8c(OC)cccc78)[nH]6)cc5)cc4)[nH]3)nccc12 [Compound S-201] | >100
CC(C)[C@H](NC(=O)c1cccc(-c2ccccc2)c1)c1ncc(-c2ccc(-c3ccc(-c4cnc([C@@H](NC(=O)c5cccc(-c6ccccc6)c5)C(C)C)[nH]4)cc3)cc2)[nH]1 [Compound S-17] | >100
CCCCOC(=O)N[C@H](c1ncc(-c2ccc(-c3ccc(-c4cnc([C@@H](NC(=O)OCCCC)C(C)C)[nH]4)cc3)cc2)[nH]1)C(C)C [Compound S-209] | >100
CC(C)OC(=O)NC(C)(C)C(=O)N[C@H](c1nc(-c2ccc(-c3ccc(-c4c[nH]c([C@@H](NC(=O)C(C)(C)NC(=O)OC(C)C)C(C)(C)C)n4)cc3)cc2)c[nH]1)C(C)(C)C [Compound Q-3] | >100
Cc1cc(-c2ccc(-c3c[nH]c([C@@H](NC(=O)C(C)(C)C)C(C)(C)C)n3)cc2)ccc1-c1c[nH]c([C@@H](NC(=O)C(C)(C)C)C(C)(C)C)n1.O=C(O)C(F)(F)F [Compound N-86] | >100
CC(C)[C@H](NC(=O)OC1CCCC1)c1ncc(-c2ccc(-c3ccc(-c4cnc([C@@H](NC(=O)OC5CCCC5)C(C)C)[nH]4)cc3)cc2)[nH]1 [Compound S-213] | >100
COC(=O)NC(C(=O)N1CCCC1c1ncc(-c2ccc(-c3ccc(-c4cnc(C(NC(=O)C(C)(C)C)C(C)(C)C)[nH]4)cc3)cc2)[nH]1)C(C)C (centres unmarked) [Compound B-195] | >10
CC(C)(C)OC(=O)N1CCC(C)(C)[C@H]1C(=O)N[C@H](c1nc(-c2ccc(-c3ccc(-c4c[nH]c([C@@H](NC(=O)[C@H]5N(C(=O)OC(C)(C)C)CCC5(C)C)C(C)(C)C)n4)cc3)cc2)c[nH]1)C(C)(C)C [Compound W-214] | >100
CC(C)(C)C(NC(=O)C1CC(=O)c2ccccc21)c1nc(-c2ccc(-c3ccc(-c4c[nH]c(C(NC(=O)C5CC(=O)c6ccccc65)C(C)(C)C)n4)cc3)cc2)c[nH]1 (mixture of isomers) [Compound S-257] | >10
CC(C)[C@H](NC(=O)[C@H](C)c1ccccc1)c1ncc(-c2ccc(-c3ccc(-c4cnc([C@@H](NC(=O)[C@H](C)c5ccccc5)C(C)C)[nH]4)cc3)cc2)[nH]1 [Compound P-64] | >100
CC(C)[C@H](NC(=O)c1ccc(C#N)s1)c1ncc(-c2ccc(-c3ccc(-c4cnc([C@@H](NC(=O)c5ccc(C#N)s5)C(C)(C)C)[nH]4)cc3)cc2)[nH]1 [Compound Y-45] | >100
CC(C)(C)C(NC(=O)C1CC(=O)N(c2ccccc2O)C1)c1nc(-c2ccc(-c3ccc(-c4c[nH]c(C(NC(=O)C5CC(=O)N(c6ccccc6O)C5)C(C)(C)C)n4)cc3)cc2)c[nH]1 (mixture of isomers) [Compound S-265] | >100
CC(C)(C)[C@H](NC(=O)C1(NC(=O)CC(F)(F)F)CCCCC1)c1nc(-c2ccc(-c3ccc(-c4c[nH]c([C@@H](NC(=O)C5(NC(=O)CC(F)(F)F)CCCCC5)C(C)(C)C)n4)cc3)cc2)c[nH]1 [Compound W-255] | >100
CC1([C@H](NC(=O)C(C)(C)C(C)(C)O)c2ncc(-c3ccc(-c4ccc(-c5cnc([C@@H](NC(=O)C(C)(C)C(C)(C)O)C6(C)CC6)[nH]5)cc4)cc3)[nH]2)CC1 [Compound B148] | >100
CC(C)(C)[C@H](NC(=O)C1CCCCC1CO)c1nc(-c2ccc(-c3ccc(-c4c[nH]c([C@@H](NC(=O)C5CCCCC5CO)C(C)(C)C)n4)cc3)cc2)c[nH]1 (single isomer, unassigned) [Compound L-141b] | >100
CC(C)(C)[C@H](NC(=O)C(C)(O)C1(C)CC1)c1nc(-c2ccc(-c3ccc(-c4c[nH]c([C@@H](NC(=O)C(C)(O)C5(C)CC5)C(C)(C)C)n4)cc3)cc2)c[nH]1 (stereo partly drawn) [Compound L-93b] | >100
COC(C)(CO)C(=O)N[C@H](c1nc(-c2ccc(-c3ccc(-c4c[nH]c([C@@H](NC(=O)C(C)(CO)OC)C(C)(C)C)n4)cc3)cc2)c[nH]1)C(C)(C)C (single isomer, unassigned) [Compound W-234] | >10
CC(C)N(CC(F)(F)F)C(=O)C(=O)N[C@H](c1nc(-c2ccc(-c3ccc(-c4c[nH]c([C@@H](NC(=O)C(=O)N(CC(F)(F)F)C(C)C)C(C)(C)C)n4)cc3)cc2)c[nH]1)C(C)(C)C [Compound W-66] | >100
CC(C)(C)[C@H](NC(=O)C(=O)c1ccco1)c1nc(-c2ccc(-c3ccc(-c4c[nH]c([C@@H](NC(=O)C(=O)c5ccco5)C(C)(C)C)n4)cc3)cc2)c[nH]1 [Compound W-20] | >100
CC(C)[C@H](NC(=O)C(=O)c1ccncc1F)c1ncc(-c2ccc(-c3ccc(-c4cnc([C@@H](NC(=O)C(=O)c5ccncc5F)C(C)C)[nH]4)cc3)cc2)[nH]1 [Compound P-121] | >100
CC1(OC(=O)N2CC(F)CC2C(=O)NC(c2nc(-c3ccc(-c4ccc(-c5c[nH]c(C(NC(=O)C6CC(F)CN6C(=O)OC6(C)CC6)C(C)(C)C)n5)cc4)cc3)c[nH]2)C(C)(C)C)CC1 (centres unmarked) [Compound W-119] | >100
